Assay results as given in patent publication US20220031709A1, “INHIBITION OF MICROSOMAL PROSTAGLANDIN E2 (PGE2) SYNTHASE-1 (MPGES-1)” (University of Kentucky Research Foundation, priority 2020, published 2022).
pIC50: −log10 of the molar value.

Legend:
[1] = mouse, in vivo; cited from earlier work
JAK = details: in vitro effect of PGE2; cited from earlier work
[2] = single IV dose in clinical trial: ceftriaxone 2 g, aztreonam 500 mg, cefotetan 1 g; read-out: Cmax in human plasma; cited from earlier work
[3] = test system: carrageenan-induced hyperalgesia; assay: carrageenan-induced hyperalgesia, pre-treatment (paw withdrawal latency); type: in vivo, wild-type rats; details: for effect on carrageenan-induced hyperalgesia (PWL): IP 1 h before 1% carrageenan, ceftriaxone 200 mg/kg, cefotetan 100 mg/kg, oxycodone 5 mg/kg
[4] = test system: carrageenan-induced hyperalgesia; assay: post-treatment model of carrageenan-induced hyperalgesia; type: in vivo, wild-type rats; details: for pain relief (PWL), post-treatment: treated IP 23 h after carrageenan, ceftriaxone 100 or 200 mg/kg, cefotetan 50 or 100 mg/kg, oxycodone 5 mg/kg
Protocol: To better model the clinical treatment of pain, ceftriaxone (FIG. 4) and cefotetan (FIG. 5) were also tested in a post-treatment model of carrageenan-induced hyperalgesia. Rats were first injected with carrageenan to induce the hyperalgesia/pain.

human mPGES-1 = target: T1, human mPGES-1 (Homo sapiens, UniProt O14684); assay: in vitro activity assay (ELISA) against human mPGES-1; type: biochemical
T1 sequence (O14684 1-152): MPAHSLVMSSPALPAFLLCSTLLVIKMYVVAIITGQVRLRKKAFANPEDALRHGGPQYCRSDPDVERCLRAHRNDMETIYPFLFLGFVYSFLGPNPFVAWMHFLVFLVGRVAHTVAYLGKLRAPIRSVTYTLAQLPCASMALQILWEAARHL
Protocol: The inhibitory activity of these drugs against human mPGES-1 was determined in vitro using the previously described in vitro activity procedure, an enzyme-linked immunosorbent assay (ELISA). (Ding et al., 2018a; Ding et al., 2018b; Zhou et al., 2017).

[5] = test system: CFA-induced knee joint arthritis; assay: CFA (adjuvant)-induced knee joint arthritis, arthritis score; type: in vivo, wild-type rats; details: IP daily on Days 3 to 6 after CFA on Day 0
Protocol: FIG. 6 illustrates the anti-inflammatory and analgesic effects (in terms of arthritis score) of ceftriaxone and cefotetan on CFA-induced knee joint arthritis in wild-type rats (n=10 for each group). CFA was injected to the knee joint on Day 0. Drug or vehicle (control) was injected (IP) daily on Days 3 to 6. Arthritis score (mean spontaneous pain rating) measured on Days 0 to 6, 8, 10, and 12.
Ceftriaxone and cefotetan were further tested using an adjuvant-induced knee joint arthritis model described by Hammell et al. 2016. Using this one-week knee joint arthritis model, CFA was injected to the knee joint on Day 0 to induce chronic arthritis and associated pain, followed by daily PWL and arthritis score (mean spontaneous pain rating) assessments from Day 0 to Day 7.
Daily treatment with ceftriaxone and cefotetan or vehicle (control group) started on Day 3 (after the arthritis score assessment on that day) and continued until Day 6. There were a total of four doses of the respective treatment from Day 3 to Day 6. […] On Day 3, the arthritis score reached the peak (reflecting the most severe arthritis), which is consistent with previous observations reported for the control group. (Hammell et al., 2016).

[6] = test system: carrageenan-induced paw edema; assay: carrageenan-induced paw edema, pre-treatment (percent increase in paw volume); type: in vivo, wild-type rats; details: IP 1 h before 1% carrageenan; ceftriaxone 200 mg/kg, cefotetan 100 mg/kg, oxycodone 5 mg/kg
SARS-CoV-2 = type: cell-based; details: cell culture; data not shown
AngII-induced AAA = assay: angiotensin (AngII)-induced abdominal aortic aneurysm model; type: in vivo, ApoE-deficient mice; details: AngII minipump 28 days; ceftriaxone given beginning on Day 5
Protocol: FIG. 7 illustrates the anti-inflammatory effects of ceftriaxone in terms of maximum aortic diameter.
Ceftriaxone was also tested in treatment of angiotensin (AngII)-induced AAA model. This experiment was performed using ApoE-deficient mice. AngII (with a minipump to continuously release the AngII solution within 28 days) was used to induce AAA in this strain of mice beginning Day 0 for all animals in both control and intervention groups.
The AAA was characterized by the maximum aortic diameter […] detected by the ultrasound method. Ceftriaxone was given beginning on Day 5 for intervention.

[7] = test system: proinflammatory cytokines (including TNF-α), GLT-1; details: animal models of inflammation and pain/hyperalgesia; cited from earlier work
[8] = test system: chronic inflammatory arthritis; details: placebo-controlled, double-blind study; cited from earlier work

Row | Structure (SMILES) | Cmax [2] [µM] | effect on carrageenan-induced hyperalgesia (PWL) [3] | pain relief (PWL), post-treatment [4] | arthritis score (mean spontaneous pain rating) [5] | effect on carrageenan-induced paw edema (percent increase in paw volume) [6] | other results
1 | Cc1ccc(-c2cc(C(F)(F)F)nn2-c2ccc(S(N)(=O)=O)cc2)cc1 [celecoxib] |  |  |  |  |  | toxicity in mice [1]: very toxic for stomach and other issues of mice, and bleeding ulcer was observed at gastric mucosa
2 | N#C/C(=C/c1ccc(O)c(O)c1)C(=O)NCc1ccccc1 [AG490] |  |  |  |  |  | block of PGE2-induced inflammatory hyperalgesia effect (JAK): able to block this in vitro effect of PGE2
3 | C[C@H]1[C@H](NC(=O)/C(=N\OC(C)(C)C(=O)O)c2csc(N)n2)C(=O)N1S(=O)(=O)O [aztreonam] | 129 |  |  |  |  | 
4 | COc1ccc2c3c1O[C@H]1C(=O)CC[C@@]4(O)[C@@H](C2)N(C)CC[C@]314 [oxycodone] |  | effectively relieved the pain within six hours after oxycodone injection | significantly relieved the pain |  |  | pain (PWL) at 23 h ([3]; oxycodone 5 mg/kg IP pre-treatment, 23 h (next day)): still significant pain at 23 h; PWL peak time ([4]; oxycodone 5 mg/kg IP, post-treatment): 1 h
5 | CO[C@@]1(NC(=O)C2SC(=C(C(N)=O)C(=O)O)S2)C(=O)N2C(C(=O)O)=C(CSc3nnnn3C)CS[C@@H]21 (stereo partly shown) [cefotetan] | 440 | has the desired anti-inflammatory and analgesic effects | significantly, and dose-dependently, relieved the pain | mean spontaneous pain rating was reduced | has the desired anti-inflammatory and analgesic effects | pIC50 (human mPGES-1): 4.87
6 | CO/N=C(\C(=O)N[C@@H]1C(=O)N2C(C(=O)O)=C(CSc3nc(=O)c(=O)[nH]n3C)CS[C@H]12)c1csc(N)n1 [ceftriaxone] | 463 | completely suppressed carrageenan-induced hyperalgesia | significantly, and dose-dependently, relieved the pain | mean spontaneous pain rating was reduced | significantly decreased the percent increase in the paw volume | cytoprotective activity against SARS-CoV-2 infection (SARS-CoV-2): cytoprotective against SARS-CoV-2 infection; progression of AAA (maximum aortic diameter, ultrasound) (AngII-induced AAA): significantly stopped the progression of AAA, and it even reversed the AAA; effect on proinflammatory cytokines and GLT-1 [7]: effectively attenuated the proinflammatory cytokines (including TNF-α) and reversed the downregulation of GLT-1; clinical efficacy in chronic inflammatory arthritis [8]: efficacious in treatment of chronic inflammatory arthritis
